Measurements: article PMC9030254, “Target Hopping from Protein Kinases to PXR: Identification of Small-Molecule Protein Kinase Inhibitors as Selective Modulators of Pregnane X Receptor from TüKIC Library” (Cells, 2022)

Tests used:
Test in all cases: Kinase profiling
Assay type in all cases: biochemical
ABL2 = target: T1, ABL2 (Homo sapiens, UniProt P42684)
T1 construct: purchased ProQinase (Freiburg, Germany)
Protocol: (§1) The analysis was performed by ProQinase (Freiburg, Germany).

AuroraB = target: T2, AuroraB (Homo sapiens, UniProt Q96GD4)
T2 construct: purchased ProQinase (Freiburg, Germany)
Protocol: as §1

CDK1/CycB1 = target: T3, CDK1/CycB1 (Homo sapiens, UniProt P06493)
T3 construct: purchased ProQinase (Freiburg, Germany)
Protocol: as §1

DDR2 = target: T4, DDR2 (Homo sapiens, UniProt Q16832)
T4 construct: purchased ProQinase (Freiburg, Germany)
T4 sequence (Q16832 22-855): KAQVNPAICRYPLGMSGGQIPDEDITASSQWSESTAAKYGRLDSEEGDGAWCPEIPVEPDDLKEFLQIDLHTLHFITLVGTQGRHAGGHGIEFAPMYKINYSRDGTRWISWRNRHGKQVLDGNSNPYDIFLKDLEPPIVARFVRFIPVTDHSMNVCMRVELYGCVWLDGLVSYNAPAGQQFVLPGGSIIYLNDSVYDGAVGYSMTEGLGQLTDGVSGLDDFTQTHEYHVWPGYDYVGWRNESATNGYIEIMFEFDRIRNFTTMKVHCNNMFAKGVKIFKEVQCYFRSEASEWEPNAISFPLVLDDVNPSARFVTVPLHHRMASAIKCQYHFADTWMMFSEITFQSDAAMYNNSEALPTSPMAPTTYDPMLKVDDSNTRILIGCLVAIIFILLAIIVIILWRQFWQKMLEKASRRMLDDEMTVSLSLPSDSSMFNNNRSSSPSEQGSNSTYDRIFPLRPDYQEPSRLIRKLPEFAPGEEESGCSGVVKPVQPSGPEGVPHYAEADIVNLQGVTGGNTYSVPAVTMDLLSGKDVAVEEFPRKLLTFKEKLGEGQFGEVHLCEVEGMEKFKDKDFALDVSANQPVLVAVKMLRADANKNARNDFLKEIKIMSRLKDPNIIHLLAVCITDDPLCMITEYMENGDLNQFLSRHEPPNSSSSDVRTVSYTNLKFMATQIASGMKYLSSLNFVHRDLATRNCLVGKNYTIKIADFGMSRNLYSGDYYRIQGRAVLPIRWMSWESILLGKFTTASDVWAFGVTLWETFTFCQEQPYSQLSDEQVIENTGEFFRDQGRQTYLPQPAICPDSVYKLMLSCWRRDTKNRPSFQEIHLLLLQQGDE
Protocol: as §1

GRK4 = target: T5, GRK4 (Homo sapiens, UniProt P32298)
T5 construct: purchased ProQinase (Freiburg, Germany)
Protocol: as §1

LYN = target: T6, LYN (Homo sapiens, UniProt P07948)
T6 construct: purchased ProQinase (Freiburg, Germany)
Protocol: as §1

MAP3K1 = target: T7, MAP3K1 (Homo sapiens, UniProt Q13233)
T7 construct: purchased ProQinase (Freiburg, Germany)
Protocol: as §1

NEK2 = target: T8, NEK2 (Homo sapiens, UniProt P51955)
T8 construct: purchased ProQinase (Freiburg, Germany)
T8 sequence (P51955 1-445): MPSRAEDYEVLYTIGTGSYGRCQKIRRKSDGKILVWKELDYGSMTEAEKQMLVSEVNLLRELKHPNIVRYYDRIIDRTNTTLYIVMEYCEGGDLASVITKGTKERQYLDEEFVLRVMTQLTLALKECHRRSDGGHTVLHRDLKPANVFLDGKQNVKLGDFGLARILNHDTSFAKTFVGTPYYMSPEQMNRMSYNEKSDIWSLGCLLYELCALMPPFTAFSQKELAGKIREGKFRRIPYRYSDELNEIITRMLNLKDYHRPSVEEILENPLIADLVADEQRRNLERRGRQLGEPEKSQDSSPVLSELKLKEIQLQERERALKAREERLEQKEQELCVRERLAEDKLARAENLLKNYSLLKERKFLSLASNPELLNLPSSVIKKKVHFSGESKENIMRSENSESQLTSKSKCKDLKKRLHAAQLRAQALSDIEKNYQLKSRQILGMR
Protocol: as §1

PAK2 = target: T9, PAK2 (Homo sapiens, UniProt Q13177)
T9 construct: purchased ProQinase (Freiburg, Germany)
Protocol: as §1

PBK = target: T10, PBK (Homo sapiens, UniProt Q96KB5)
T10 construct: purchased ProQinase (Freiburg, Germany)
T10 sequence (Q96KB5 1-322): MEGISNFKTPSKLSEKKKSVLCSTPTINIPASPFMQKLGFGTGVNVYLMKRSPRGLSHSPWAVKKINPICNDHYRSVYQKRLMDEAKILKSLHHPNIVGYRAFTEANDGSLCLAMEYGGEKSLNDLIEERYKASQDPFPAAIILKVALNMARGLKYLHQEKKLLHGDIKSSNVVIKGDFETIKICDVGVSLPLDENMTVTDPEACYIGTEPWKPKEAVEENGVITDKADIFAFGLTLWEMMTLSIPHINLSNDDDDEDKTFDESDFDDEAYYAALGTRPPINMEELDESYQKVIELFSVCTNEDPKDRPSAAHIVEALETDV
Protocol: as §1

PKMzeta = target: T11, PKMzeta (Homo sapiens, UniProt Q05513)
T11 construct: PKMzeta; purchased ProQinase (Freiburg, Germany)
T11 sequence (Q05513 184-592 limits assumed): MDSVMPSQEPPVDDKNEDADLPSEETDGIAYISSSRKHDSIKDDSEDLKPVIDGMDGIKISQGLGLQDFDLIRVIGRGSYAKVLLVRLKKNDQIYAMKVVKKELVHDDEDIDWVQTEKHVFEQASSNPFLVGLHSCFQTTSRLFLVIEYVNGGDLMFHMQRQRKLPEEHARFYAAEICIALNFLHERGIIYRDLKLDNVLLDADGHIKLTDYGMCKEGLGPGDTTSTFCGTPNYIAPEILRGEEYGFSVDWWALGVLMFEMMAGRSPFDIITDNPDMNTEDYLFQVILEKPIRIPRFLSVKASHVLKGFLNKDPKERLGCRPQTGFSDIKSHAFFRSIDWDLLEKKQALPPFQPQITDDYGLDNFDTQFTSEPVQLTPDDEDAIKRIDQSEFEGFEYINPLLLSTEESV
Protocol: as §1

PKN3 = target: T12, PKN3 (Homo sapiens, UniProt Q6P5Z2)
T12 construct: purchased ProQinase (Freiburg, Germany)
Protocol: as §1

RIPK2 = target: T13, RIPK2 (Homo sapiens, UniProt O43353)
T13 construct: purchased ProQinase (Freiburg, Germany)
Protocol: as §1

SLK = target: T14, SLK (Homo sapiens, UniProt Q9H2G2)
T14 construct: purchased ProQinase (Freiburg, Germany)
Protocol: as §1

T9 sequence (Q13177 whole entry): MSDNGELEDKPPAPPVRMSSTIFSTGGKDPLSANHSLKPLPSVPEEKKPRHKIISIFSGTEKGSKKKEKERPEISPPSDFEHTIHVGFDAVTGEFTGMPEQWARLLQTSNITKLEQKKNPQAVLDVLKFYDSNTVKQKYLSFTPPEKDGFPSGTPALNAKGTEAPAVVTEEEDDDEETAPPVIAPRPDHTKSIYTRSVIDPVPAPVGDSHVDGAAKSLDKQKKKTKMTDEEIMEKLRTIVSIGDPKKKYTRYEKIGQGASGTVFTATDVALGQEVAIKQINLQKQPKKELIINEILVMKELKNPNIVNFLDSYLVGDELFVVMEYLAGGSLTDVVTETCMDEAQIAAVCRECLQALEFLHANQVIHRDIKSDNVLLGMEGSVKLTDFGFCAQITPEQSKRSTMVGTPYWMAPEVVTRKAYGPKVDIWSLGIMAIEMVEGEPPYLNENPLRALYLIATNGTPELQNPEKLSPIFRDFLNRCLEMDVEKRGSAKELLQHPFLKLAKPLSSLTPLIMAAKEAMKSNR
T7 sequence (Q13233 whole entry): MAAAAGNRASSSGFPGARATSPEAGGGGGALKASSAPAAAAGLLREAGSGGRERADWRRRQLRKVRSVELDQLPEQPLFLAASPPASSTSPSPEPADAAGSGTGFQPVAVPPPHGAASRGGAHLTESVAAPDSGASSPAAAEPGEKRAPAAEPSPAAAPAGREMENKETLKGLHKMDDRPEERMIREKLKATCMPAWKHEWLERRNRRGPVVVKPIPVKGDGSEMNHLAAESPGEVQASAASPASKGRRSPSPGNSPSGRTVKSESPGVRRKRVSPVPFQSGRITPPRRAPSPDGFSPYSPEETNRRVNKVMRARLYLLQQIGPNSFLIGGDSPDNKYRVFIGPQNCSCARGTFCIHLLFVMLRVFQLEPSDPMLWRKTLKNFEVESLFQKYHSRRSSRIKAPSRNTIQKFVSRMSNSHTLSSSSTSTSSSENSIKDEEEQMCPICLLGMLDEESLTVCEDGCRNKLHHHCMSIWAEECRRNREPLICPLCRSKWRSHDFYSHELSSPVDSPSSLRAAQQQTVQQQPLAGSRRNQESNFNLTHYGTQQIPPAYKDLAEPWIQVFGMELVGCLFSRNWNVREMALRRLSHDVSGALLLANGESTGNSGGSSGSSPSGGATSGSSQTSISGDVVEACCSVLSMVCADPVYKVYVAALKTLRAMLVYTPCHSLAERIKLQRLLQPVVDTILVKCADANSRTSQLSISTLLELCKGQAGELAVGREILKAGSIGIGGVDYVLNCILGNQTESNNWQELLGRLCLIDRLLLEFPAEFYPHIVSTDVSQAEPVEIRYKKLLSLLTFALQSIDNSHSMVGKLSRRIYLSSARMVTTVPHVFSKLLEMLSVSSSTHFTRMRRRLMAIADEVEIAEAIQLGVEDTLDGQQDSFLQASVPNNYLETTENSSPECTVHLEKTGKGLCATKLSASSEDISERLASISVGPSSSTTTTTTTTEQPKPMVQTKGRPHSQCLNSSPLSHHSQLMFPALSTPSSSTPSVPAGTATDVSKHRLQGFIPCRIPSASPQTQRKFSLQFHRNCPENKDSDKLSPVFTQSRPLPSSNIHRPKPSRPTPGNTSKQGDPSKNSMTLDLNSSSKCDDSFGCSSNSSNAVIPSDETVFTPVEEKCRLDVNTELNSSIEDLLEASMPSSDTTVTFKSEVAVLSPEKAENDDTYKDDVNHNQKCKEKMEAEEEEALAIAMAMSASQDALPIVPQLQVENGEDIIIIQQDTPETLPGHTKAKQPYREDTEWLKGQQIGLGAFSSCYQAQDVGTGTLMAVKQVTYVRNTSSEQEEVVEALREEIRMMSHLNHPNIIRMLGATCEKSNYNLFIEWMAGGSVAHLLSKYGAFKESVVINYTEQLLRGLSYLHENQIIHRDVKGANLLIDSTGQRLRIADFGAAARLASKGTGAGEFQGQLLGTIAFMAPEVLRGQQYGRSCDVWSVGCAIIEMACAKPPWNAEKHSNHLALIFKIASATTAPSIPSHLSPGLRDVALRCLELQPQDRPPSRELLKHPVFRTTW
T13 sequence (O43353 whole entry): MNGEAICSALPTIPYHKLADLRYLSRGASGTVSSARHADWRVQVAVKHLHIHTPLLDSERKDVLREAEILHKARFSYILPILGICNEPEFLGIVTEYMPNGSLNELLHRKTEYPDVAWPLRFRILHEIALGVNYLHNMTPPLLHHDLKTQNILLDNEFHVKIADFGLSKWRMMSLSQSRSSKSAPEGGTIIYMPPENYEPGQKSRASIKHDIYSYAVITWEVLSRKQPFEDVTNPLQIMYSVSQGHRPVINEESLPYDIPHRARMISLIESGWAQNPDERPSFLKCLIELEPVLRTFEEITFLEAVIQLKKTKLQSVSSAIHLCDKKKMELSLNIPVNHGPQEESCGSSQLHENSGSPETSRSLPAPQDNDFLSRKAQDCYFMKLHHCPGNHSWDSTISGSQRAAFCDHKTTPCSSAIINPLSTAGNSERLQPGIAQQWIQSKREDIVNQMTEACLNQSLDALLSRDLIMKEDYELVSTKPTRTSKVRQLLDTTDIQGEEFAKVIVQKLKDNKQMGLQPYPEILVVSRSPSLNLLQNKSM
T14 sequence (Q9H2G2 whole entry): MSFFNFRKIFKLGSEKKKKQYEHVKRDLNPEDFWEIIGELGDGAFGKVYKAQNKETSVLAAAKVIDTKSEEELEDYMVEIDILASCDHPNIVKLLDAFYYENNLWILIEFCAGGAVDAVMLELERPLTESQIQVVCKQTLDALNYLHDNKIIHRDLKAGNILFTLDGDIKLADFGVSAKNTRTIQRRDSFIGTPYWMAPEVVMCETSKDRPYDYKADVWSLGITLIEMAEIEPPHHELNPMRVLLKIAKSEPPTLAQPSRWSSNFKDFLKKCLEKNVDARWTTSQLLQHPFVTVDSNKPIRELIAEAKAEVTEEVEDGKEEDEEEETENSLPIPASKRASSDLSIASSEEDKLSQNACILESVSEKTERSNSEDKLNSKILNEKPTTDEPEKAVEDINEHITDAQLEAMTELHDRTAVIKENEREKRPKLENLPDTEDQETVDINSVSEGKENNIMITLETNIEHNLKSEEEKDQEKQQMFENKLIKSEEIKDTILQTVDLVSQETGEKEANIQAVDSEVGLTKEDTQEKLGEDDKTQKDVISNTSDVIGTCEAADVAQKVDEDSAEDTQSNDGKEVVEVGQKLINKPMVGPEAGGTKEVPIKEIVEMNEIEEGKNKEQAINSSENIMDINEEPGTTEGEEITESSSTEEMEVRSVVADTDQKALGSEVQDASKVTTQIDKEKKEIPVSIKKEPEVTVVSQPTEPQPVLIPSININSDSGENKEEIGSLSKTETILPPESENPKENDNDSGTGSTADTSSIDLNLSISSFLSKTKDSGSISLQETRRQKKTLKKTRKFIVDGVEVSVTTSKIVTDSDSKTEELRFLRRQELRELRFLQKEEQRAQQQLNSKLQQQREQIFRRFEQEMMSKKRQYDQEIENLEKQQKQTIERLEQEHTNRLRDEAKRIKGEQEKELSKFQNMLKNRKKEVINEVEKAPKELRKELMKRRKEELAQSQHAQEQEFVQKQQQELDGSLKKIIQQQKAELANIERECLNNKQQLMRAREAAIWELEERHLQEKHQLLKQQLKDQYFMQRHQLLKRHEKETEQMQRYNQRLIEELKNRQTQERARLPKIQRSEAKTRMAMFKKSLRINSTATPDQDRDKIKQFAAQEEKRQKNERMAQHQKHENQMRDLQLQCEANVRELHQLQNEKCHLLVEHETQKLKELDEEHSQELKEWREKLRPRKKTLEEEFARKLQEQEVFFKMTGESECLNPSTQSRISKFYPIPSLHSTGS
T3 sequence (P06493 whole entry): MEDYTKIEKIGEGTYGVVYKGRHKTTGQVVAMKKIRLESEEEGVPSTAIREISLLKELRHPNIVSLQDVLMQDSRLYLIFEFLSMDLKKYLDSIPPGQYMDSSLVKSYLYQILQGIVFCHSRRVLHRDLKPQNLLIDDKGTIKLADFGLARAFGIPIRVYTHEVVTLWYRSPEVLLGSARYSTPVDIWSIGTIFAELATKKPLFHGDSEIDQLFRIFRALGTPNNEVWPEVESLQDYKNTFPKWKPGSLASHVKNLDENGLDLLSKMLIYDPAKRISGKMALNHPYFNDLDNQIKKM
T3 sequence (P14635 whole entry partner): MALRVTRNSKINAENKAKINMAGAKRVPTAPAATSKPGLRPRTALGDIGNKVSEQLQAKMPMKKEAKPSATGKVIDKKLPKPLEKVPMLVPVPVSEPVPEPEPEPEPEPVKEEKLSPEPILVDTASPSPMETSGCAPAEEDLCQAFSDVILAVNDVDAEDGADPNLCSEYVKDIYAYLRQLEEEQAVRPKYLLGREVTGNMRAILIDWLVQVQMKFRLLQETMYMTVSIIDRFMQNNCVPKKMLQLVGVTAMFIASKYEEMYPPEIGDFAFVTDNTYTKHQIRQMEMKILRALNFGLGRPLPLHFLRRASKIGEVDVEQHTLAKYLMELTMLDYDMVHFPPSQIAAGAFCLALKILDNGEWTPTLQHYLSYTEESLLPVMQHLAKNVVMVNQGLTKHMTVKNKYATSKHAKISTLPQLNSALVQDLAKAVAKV
T6 sequence (P07948 whole entry): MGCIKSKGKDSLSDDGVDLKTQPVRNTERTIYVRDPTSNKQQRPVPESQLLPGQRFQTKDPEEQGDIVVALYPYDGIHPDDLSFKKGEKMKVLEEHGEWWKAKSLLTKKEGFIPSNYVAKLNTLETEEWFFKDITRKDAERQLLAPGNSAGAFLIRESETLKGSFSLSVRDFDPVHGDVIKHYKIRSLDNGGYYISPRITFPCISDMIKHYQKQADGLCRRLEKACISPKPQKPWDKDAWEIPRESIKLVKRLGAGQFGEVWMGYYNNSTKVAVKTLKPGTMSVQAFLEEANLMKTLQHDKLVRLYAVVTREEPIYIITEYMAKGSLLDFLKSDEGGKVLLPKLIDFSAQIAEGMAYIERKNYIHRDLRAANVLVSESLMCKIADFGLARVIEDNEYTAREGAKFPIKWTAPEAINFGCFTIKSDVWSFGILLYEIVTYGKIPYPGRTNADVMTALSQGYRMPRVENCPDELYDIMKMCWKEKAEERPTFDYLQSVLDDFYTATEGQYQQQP

Compound | Residual activity (ABL2; 1.0E-05 M) | Residual activity (ABL2; 1.0E-06 M) | Residual activity (AuroraB; 1.0E-05 M) | Residual activity (AuroraB; 1.0E-06 M) | Residual activity (CDK1/CycB1; 1.0E-05 M) | Residual activity (CDK1/CycB1; 1.0E-06 M) | Residual activity (DDR2; 1.0E-05 M) | Residual activity (DDR2; 1.0E-06 M) | Residual activity (GRK4; 1.0E-05 M) | Residual activity (GRK4; 1.0E-06 M) | Residual activity (LYN; 1.0E-05 M) | Residual activity (LYN; 1.0E-06 M) | Residual activity (MAP3K1; 1.0E-05 M) | Residual activity (MAP3K1; 1.0E-06 M) | Residual activity (NEK2; 1.0E-05 M) | Residual activity (NEK2; 1.0E-06 M) | Residual activity (PAK2; 1.0E-05 M) | Residual activity (PAK2; 1.0E-06 M) | Residual activity (PBK; 1.0E-05 M) | Residual activity (PBK; 1.0E-06 M) | other results
O=C(Cc1ccccc1)Nc1ccc(F)c(Nc2ccc3c(c2)CCCCC3=O)c1 [Compound 100] | 93 % of control | 97 % of control | 90 % of control | 101 % of control | 100 % of control | 107 % of control | 71 % of control | 94 % of control | 86 % of control | 116 % of control | 95 % of control | 96 % of control | 83 % of control | 96 % of control | 97 % of control | 105 % of control | 68 % of control | 101 % of control | 93 % of control | 128 % of control | Residual activity (PKMzeta; 1.0E-05 M): 98 % of control; Residual activity (PKMzeta; 1.0E-06 M): 105 % of control; Residual activity (PKN3; 1.0E-05 M): 101 % of control; Residual activity (PKN3; 1.0E-06 M): 104 % of control; Residual activity (RIPK2; 1.0E-05 M): 89 % of control; Residual activity (RIPK2; 1.0E-06 M): 104 % of control; Residual activity (SLK; 1.0E-05 M): 93 % of control; Residual activity (SLK; 1.0E-06 M): 98 % of control
O=C(Nc1ccc(F)c(Nc2ccc3c(c2)CCCCC3=O)c1)c1cccc(F)c1 [Compound 109] | 92 % of control | 95 % of control | 85 % of control | 101 % of control | 114 % of control | 106 % of control | 64 % of control | 93 % of control | 130 % of control | 103 % of control | 88 % of control | 104 % of control | 93 % of control | 96 % of control | 101 % of control | 96 % of control | 69 % of control | 91 % of control | 106 % of control | 95 % of control | Residual activity (PKMzeta; 1.0E-05 M): 88 % of control; Residual activity (PKMzeta; 1.0E-06 M): 103 % of control; Residual activity (PKN3; 1.0E-05 M): 92 % of control; Residual activity (PKN3; 1.0E-06 M): 91 % of control; Residual activity (RIPK2; 1.0E-05 M): 84 % of control; Residual activity (RIPK2; 1.0E-06 M): 99 % of control; Residual activity (SLK; 1.0E-05 M): 91 % of control; Residual activity (SLK; 1.0E-06 M): 94 % of control
